Data reported in ChEMBL document CHEMBL1148023, “Synthesis and antibacterial activity of derivatives of 6-O-allylic acylides” (2007).
Converted amounts (≈) assume the structure as drawn.

Key:
Format in all cases: functional
Staphylococcus aureus [1] = assay: Antibacterial activity against methicillin-resistant Staphylococcus aureus 01-429 by broth microdilution method
Staphylococcus aureus [2] = assay: Antibacterial activity against methicillin-resistant Staphylococcus aureus 01-433 by broth microdilution method
Streptococcus pneumoniae [3] = assay: Antibacterial activity against Streptococcus pneumoniae ATCC 49619 by broth microdilution method
[4] = tested on: Staphylococcus epidermidis; assay: Antibacterial activity against methicillin-resistant Staphylococcus epidermidis 01-1056 by broth microdilution method
[5] = tested on: Staphylococcus epidermidis; assay: Antibacterial activity against methicillin-resistant Staphylococcus epidermidis 01-1059 by broth microdilution method
Staphylococcus aureus [6] = assay: Antibacterial activity against methicillin-sensitive Staphylococcus aureus 01-481 by broth microdilution method
Streptococcus pneumoniae [7] = assay: Antibacterial activity against erythromycin-resistant Streptococcus pneumoniae 03-458 by broth microdilution method
[8] = tested on: Staphylococcus epidermidis; assay: Antibacterial activity against methicillin-sensitive Staphylococcus epidermidis 01-1091 by broth microdilution method
Streptococcus pyogenes [9] = assay: Antibacterial activity against erythromycin-susceptible Streptococcus pyogenes 01-740 by broth microdilution method
[10] = tested on: Staphylococcus epidermidis; assay: Antibacterial activity against methicillin-sensitive Staphylococcus epidermidis 01-1004 by broth microdilution method
Streptococcus pneumoniae [11] = assay: Antibacterial activity against erythromycin-resistant Streptococcus pneumoniae 03-436 by broth microdilution method
Staphylococcus aureus [12] = assay: Antibacterial activity against methicillin-resistant Staphylococcus aureus 01-483 by broth microdilution method
Streptococcus pyogenes [13] = assay: Antibacterial activity against erythromycin-resistant Streptococcus pyogenes 03-680 by broth microdilution method
[14] = tested on: Staphylococcus epidermidis; assay: Antibacterial activity against methicillin-sensitive Staphylococcus epidermidis 01-1005 by broth microdilution method
Staphylococcus aureus [15] = assay: Antibacterial activity against methicillin-sensitive Staphylococcus aureus 01-430 by broth microdilution method
[16] = tested on: Staphylococcus epidermidis; assay: Antibacterial activity against methicillin-resistant Staphylococcus epidermidis 01-1090 by broth microdilution method
Streptococcus pyogenes [17] = assay: Antibacterial activity against erythromycin-susceptible Streptococcus pyogenes 01-804 by broth microdilution method
Streptococcus pneumoniae [18] = assay: Antibacterial activity against erythromycin-resistant Streptococcus pneumoniae 03-451 by broth microdilution method
Staphylococcus aureus [19] = assay: Antibacterial activity against methicillin-sensitive Staphylococcus aureus 01-431 by broth microdilution method
Streptococcus pyogenes [20] = assay: Antibacterial activity against erythromycin-susceptible Streptococcus pyogenes 01-469 by broth microdilution method

Compound	MIC (Staphylococcus aureus [1])	MIC (Staphylococcus aureus [2])	MIC (Streptococcus pneumoniae [3])	MIC [4]	MIC [5]	MIC (Staphylococcus aureus [6])	MIC (Streptococcus pneumoniae [7])	MIC [8]	MIC (Streptococcus pyogenes [9])	MIC [10]	MIC (Streptococcus pneumoniae [11])	MIC (Staphylococcus aureus [12])	MIC (Streptococcus pyogenes [13])	MIC [14]	MIC (Staphylococcus aureus [15])	MIC [16]	MIC (Streptococcus pyogenes [17])	MIC (Streptococcus pneumoniae [18])	MIC (Staphylococcus aureus [19])	MIC (Streptococcus pyogenes [20])
C=CCO[C@@H]1C[C@@H](C)C(=O)[C@H](C)[C@H]2OC(=O)O[C@]2(C)[C@@H](CC)OC(=O)[C@H](C)[C@@H](OC(=O)Cc2ccccc2Cl)[C@H](C)[C@H]1OC1O[C@H](C)C[C@H](N(C)C)[C@H]1O (stereo not given in full)	16 µg/mL (≈ 20.5 µM)	16 µg/mL (≈ 20.5 µM)	0.25 µg/mL (≈ 0.32 µM)	32 µg/mL (≈ 41 µM)	8 µg/mL (≈ 10.3 µM)	4 µg/mL (≈ 5.13 µM)	2 µg/mL (≈ 2.56 µM)	1 µg/mL (≈ 1.28 µM)	0.062 µg/mL (≈ 0.0795 µM)	1 µg/mL (≈ 1.28 µM)	8 µg/mL (≈ 10.3 µM)	4 µg/mL (≈ 5.13 µM)	16 µg/mL (≈ 20.5 µM)	1 µg/mL (≈ 1.28 µM)	1 µg/mL (≈ 1.28 µM)	4 µg/mL (≈ 5.13 µM)	0.125 µg/mL (≈ 0.16 µM)	4 µg/mL (≈ 5.13 µM)	1 µg/mL (≈ 1.28 µM)	0.062 µg/mL (≈ 0.0795 µM)
C=CCO[C@@H]1C[C@@H](C)C(=O)[C@H](C)[C@H]2OC(=O)O[C@]2(C)[C@@H](CC)OC(=O)[C@H](C)[C@@H](OC(=O)Cc2c[nH]c3ccccc23)[C@H](C)C1O[C@@H]1O[C@H](C)C[C@H](N(C)C)[C@H]1O (stereo not given in full)	16 µg/mL (≈ 20.4 µM)	16 µg/mL (≈ 20.4 µM)	2 µg/mL (≈ 2.55 µM)	32 µg/mL (≈ 40.8 µM)	32 µg/mL (≈ 40.8 µM)	16 µg/mL (≈ 20.4 µM)	32 µg/mL (≈ 40.8 µM)	4 µg/mL (≈ 5.1 µM)	0.5 µg/mL (≈ 0.637 µM)	4 µg/mL (≈ 5.1 µM)	32 µg/mL (≈ 40.8 µM)	16 µg/mL (≈ 20.4 µM)	16 µg/mL (≈ 20.4 µM)	4 µg/mL (≈ 5.1 µM)	8 µg/mL (≈ 10.2 µM)	32 µg/mL (≈ 40.8 µM)	0.5 µg/mL (≈ 0.637 µM)	16 µg/mL (≈ 20.4 µM)	8 µg/mL (≈ 10.2 µM)	0.5 µg/mL (≈ 0.637 µM)
C=CCO[C@@H]1C[C@@H](C)C(=O)[C@H](C)[C@H]2OC(=O)O[C@]2(C)[C@@H](CC)OC(=O)[C@H](C)[C@@H](OC(=O)Cc2ccc3c(c2)OCO3)[C@H](C)[C@H]1O[C@@H]1O[C@H](C)C[C@H](N(C)C)[C@H]1O	32 µg/mL (≈ 40.5 µM)	32 µg/mL (≈ 40.5 µM)	0.062 µg/mL (≈ 0.0785 µM)	32 µg/mL (≈ 40.5 µM)	1 µg/mL (≈ 1.27 µM)	1 µg/mL (≈ 1.27 µM)	2 µg/mL (≈ 2.53 µM)	0.5 µg/mL (≈ 0.633 µM)	0.016 µg/mL (≈ 0.0203 µM)	0.5 µg/mL (≈ 0.633 µM)	8 µg/mL (≈ 10.1 µM)	1 µg/mL (≈ 1.27 µM)	16 µg/mL (≈ 20.3 µM)	0.5 µg/mL (≈ 0.633 µM)	0.5 µg/mL (≈ 0.633 µM)	1 µg/mL (≈ 1.27 µM)	0.031 µg/mL (≈ 0.0392 µM)	4 µg/mL (≈ 5.06 µM)	0.5 µg/mL (≈ 0.633 µM)	0.016 µg/mL (≈ 0.0203 µM)
C=CCO[C@@H]1C[C@@H](C)C(=O)[C@H](C)[C@H]2OC(=O)O[C@]2(C)[C@@H](CC)OC(=O)[C@H](C)[C@@H](OC(=O)CCc2c[nH]c3ccccc23)[C@H](C)[C@H]1O[C@@H]1O[C@H](C)C[C@H](N(C)C)[C@H]1O	32 µg/mL (≈ 40.1 µM)	32 µg/mL (≈ 40.1 µM)	4 µg/mL (≈ 5.01 µM)	32 µg/mL (≈ 40.1 µM)	32 µg/mL (≈ 40.1 µM)	32 µg/mL (≈ 40.1 µM)	32 µg/mL (≈ 40.1 µM)	32 µg/mL (≈ 40.1 µM)	1 µg/mL (≈ 1.25 µM)	32 µg/mL (≈ 40.1 µM)	32 µg/mL (≈ 40.1 µM)	32 µg/mL (≈ 40.1 µM)	32 µg/mL (≈ 40.1 µM)	32 µg/mL (≈ 40.1 µM)	32 µg/mL (≈ 40.1 µM)	32 µg/mL (≈ 40.1 µM)	1 µg/mL (≈ 1.25 µM)	32 µg/mL (≈ 40.1 µM)	32 µg/mL (≈ 40.1 µM)	1 µg/mL (≈ 1.25 µM)
CC[C@H]1OC(=O)[C@H](C)[C@@H](O[C@H]2C[C@@](C)(OC)[C@@H](O)[C@H](C)O2)[C@H](C)[C@@H](O[C@@H]2O[C@H](C)C[C@H](N(C)C)[C@H]2O)[C@](C)(OC)C[C@@H](C)C(=O)[C@H](C)[C@@H](O)[C@]1(C)O [CLARITHROMYCIN]	256 µg/mL (≈ 342 µM)	256 µg/mL (≈ 342 µM)	0.25 µg/mL (≈ 0.334 µM)	256 µg/mL (≈ 342 µM)	256 µg/mL (≈ 342 µM)	0.5 µg/mL (≈ 0.668 µM)	256 µg/mL (≈ 342 µM)	0.125 µg/mL (≈ 0.167 µM)	0.062 µg/mL (≈ 0.0829 µM)	0.125 µg/mL (≈ 0.167 µM)	128 µg/mL (≈ 171 µM)	256 µg/mL (≈ 342 µM)	256 µg/mL (≈ 342 µM)	0.125 µg/mL (≈ 0.167 µM)	0.25 µg/mL (≈ 0.334 µM)	256 µg/mL (≈ 342 µM)	0.125 µg/mL (≈ 0.167 µM)	32 µg/mL (≈ 42.8 µM)	0.25 µg/mL (≈ 0.334 µM)	0.062 µg/mL (≈ 0.0829 µM)
